For nine compounds, ED50 results are on record in patent EP0068806A2, “Basic acyl amides of (5-amino-1,3-dialkylpyrazol-4-yl)(aryl)methanones, processes for their production, and pharmaceutical compositions containing such compounds” (WARNER-LAMBERT COMPANY, priority 1981, dated 1983).

SMILES strings stand for the structures.

In the assay the test system is Long-Evans rats or squirrel-monkeys. The assay can be described thus: Conditioned lever-press avoidance of electric footshock (antipsychotic activity). The class given is in vivo. The following applies: avoidance test for antipsychotic activity; Long-Evans rats or squirrel-monkeys (species per value not stated). As for the experimental part: Representative compounds of the invention (identified in the examples) were also tested for antipsychotic activity according to the following protocol. The noted compounds had the indicated ED50 values (mg/kg) and are considered active as antipsychotic agents in the test procedure.
Mature male Long-Evans rats or squirrel-monkeys are conditioned to push a lever in order to avoid a painful electric footshock. If the animal fails to push the. lever, he receives a shock every 10 seconds until the lever is pushed. Shocks can be terminated by pushing the lever. Thereafter, as long as the lever is pushed at least once every 20 seconds, there will be no shock.
Each animal acts as its own control; one weekly session is used to establish baseline behavior and another session later in the week is used as a drug session. Once patterns of avoidance are established, the effects of standard and unknown compounds are studied.
All events are electronically programmed and the response to these events counted or used as feed-back to the program.
As for `Cc1nn(C)c(NC(=O)CN2CCCC2)c1C(=O)c1ccccc1F` [Compound 1, N-[4-(2-Fluorobenzoyl)-1,3-dimethyl-1H-pyrazol-5-yl]-1-pyrrolidineacetamide], the 50% effect level (ED50) was put at a dose of 48.2 mg/kg.
Under `Cc1nn(C)c(NC(=O)CSCCCN2CCCCC2C)c1C(=O)c1ccccc1F` (stereo not drawn) [Compound 43, N-[4-(2-Fluorobenzoyl)-1,3-dimethyl-1H-pyrazol-5-yl]-2-[[3-(2-methyl-1-piperidinyl)propyl]thio]acetamide] stands 26.5 mg/kg; under `Cc1nn(C)c(NC(=O)CNCCCN2CCOCC2)c1C(=O)c1ccccc1F` [Compound 35], 51.6 mg/kg; under `Cc1nn(C)c(NC(=O)CN2CCCCC2)c1C(=O)c1ccccc1F` [Compound 5, N-[4-(2-Fluorobenzoyl)-1,3-dimethyl-1H-pyrazol-5-yl]-1-piperidine-acetamide], 48 mg/kg.
Under `Cc1nn(C)c(NC(=O)CNCC2(C)OCCO2)c1C(=O)c1ccccc1F` [Compound 8, N-[4-(2-Fluorobenzoyl)-1,3-dimethyl-1H-pyrazol-5-yl]-3-[[(2-methyl-1,3-dioxolan-2-yl)methyl]amino]acetamide] stands 36.4 mg/kg; under `CC1=C(NCCN(C)CC(=O)Nc2c(C(=O)c3ccccc3F)c(C)nn2C)CCC1=O` [Compound 38, N-[4-(2-Fluorobenzoyl}-1,3-dimethyl-1H-pyrazol-5-yl]-2-[mothyl[2-[(2-methyl-3-oxo-1-cyclopenten-1-yl}amino]ethyl]amino]acetamide], 21.7 mg/kg.
The value for `Cc1nn(C)c(NC(=O)CN2CC3CCC(CC3)C2)c1C(=O)c1ccccc1F` [Compound 9, N-[4-(2-Fluorobenzoyl)-1,3-dinethyl-1H-pyrazol-5-yl]-3-azabicyclo-[3,2,2]nonane-3-acetamide] was 36.3 mg/kg; that for `Cc1nn(C)c(NC(=O)CNCCCN2CCCCC2C)c1C(=O)c1ccccc1F` (stereo not drawn) [Compound 20, N-[4-(2-Fluorobenzoyl)-1,3-dimethyl-1H-pyrazol-5-yl]-2-[[3-(2-methyl-1-piperidinyl)propyl]amino]acetamide] was 21.4 mg/kg.
Regarding `CCN(CC)CC(=O)Nc1c(C(=O)c2ccccc2F)c(C)nn1C` [Compound 6, 2-(Diethylamino)-N-[4-(2-fluorobenzoyl)-1,3-dimethyl-1H-pyrazol-5-yl]acetamide], it took a dose of 25.6 mg/kg to reach the 50% effect level (ED50).
